Source: patent US7438931B2, “Methods and compositions for the treatment of angiogenic diseases” (The Regents of The University of Michigan, priority 1998, dated 2008)

Columns and labels:
[1] = cited from earlier work
[2] = test system: rabbit VX2 carcinoma and rat 9L gliosarcoma; details: implanted intracerebral tumors; cited from earlier work
[3] = human, in vivo; cited from earlier work
copper [4] = details: at a cupruresis of 2-3 mg
copper [5] = details: cited from earlier work
copper absorption = details: cited from earlier work
[6] = therapeutic dose 1,000-2,000 mg/day

For [Mo] [Mo, molybdenum], the efficacy ([1]; 5-20 mg/kg/day of Mo for 4-11 months) is listed as “not effective” and the toxicity ([1]; 350 to 1400 mg/day (5-20 mg/kg/day) of Mo for 4-11 months) is listed as “without known toxicity”.
For CC(C)(S)[C@@H](N)C(=O)O [penicillamine], the survival [2] is given as “did not show improved survival over untreated controls” and the “patients developing an initial hypersensitivity syndrome” value [3] is given as “a quarter to a third of patients”.
For NCCNCCNCCN [trientine], the negative copper balance (copper [4]) is given as 1.5 to 2.5 mg/day, the patients with proteinuria (copper [5]; after several weeks of use) is given as “about 20 % of patients” and the “cupruresis after the first few weeks of therapy” value (copper [5]; [6]) is given as 2 to 3 mg. The “cupruresis, initial” value (copper [5]; [6]) was 4 to 5 mg.
For [Zn] [zinc], the toxicity (copper absorption; 150 mg daily, 200 Wilson's disease patients) is listed as “no toxicity at all”, the “copper balance, average” value (copper absorption; at the two week point) is listed as −0.35 mg daily and the “time to bring urine copper and nonceruloplasmin plasma copper down to subtoxic levels” value (copper absorption; human, in vivo) is listed as “as long as six months”. The “time to intestinal metallothionein induction and a negative copper balance” value (copper absorption; human, in vivo) was “approximately two weeks”.
